SMILES strings stand for the structures.

Chain of Acetylcholinesterase (P22303 whole entry): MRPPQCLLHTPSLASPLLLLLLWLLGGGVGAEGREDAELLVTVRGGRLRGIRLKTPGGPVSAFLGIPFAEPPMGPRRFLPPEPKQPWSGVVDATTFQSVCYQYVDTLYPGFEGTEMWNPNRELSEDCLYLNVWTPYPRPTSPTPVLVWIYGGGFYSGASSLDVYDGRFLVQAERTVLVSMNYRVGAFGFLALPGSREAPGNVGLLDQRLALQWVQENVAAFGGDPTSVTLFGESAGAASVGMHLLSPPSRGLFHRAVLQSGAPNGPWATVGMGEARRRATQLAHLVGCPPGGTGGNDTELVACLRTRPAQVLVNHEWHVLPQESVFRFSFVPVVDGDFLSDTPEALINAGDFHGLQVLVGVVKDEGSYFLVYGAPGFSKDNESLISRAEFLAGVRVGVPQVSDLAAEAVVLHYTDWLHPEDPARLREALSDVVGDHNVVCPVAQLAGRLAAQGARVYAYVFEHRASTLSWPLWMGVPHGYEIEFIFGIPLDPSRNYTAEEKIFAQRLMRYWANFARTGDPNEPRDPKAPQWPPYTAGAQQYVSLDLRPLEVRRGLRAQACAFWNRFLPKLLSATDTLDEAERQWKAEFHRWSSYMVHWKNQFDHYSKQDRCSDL

The first assay relates to Leishmania amazonensis. Briefly: Inhibition on leishmania mexicana amazonensis. In kind it is functional, organism-based.
The IC50 is the concentration at which inhibition is half-maximal. High values mean a need for much substance, low ones inhibition by little substance. `COc1cc(C2=NCCN2)ccc1OCCCCCOc1ccc(C2=NCCN2)cc1OC` gave an IC50 of 4040 µM. Consider `COc1cc(C2=NCCN2)ccc1OCCCCOc1ccc(C2=NCCN2)cc1OC`, for which the IC50 is 6410 µM. `COc1cc(C2=NCCN2)ccc1OCCCOc1ccc(C2=NCCN2)cc1OC`: the IC50 was 2260 µM. In the case of `c1cc(C2=NCCN2)ccc1OCCCCOc1ccc(C2=NCCN2)cc1`, the IC50 is 2710 µM.

On to `N=C(N)c1ccc(NCCCCCNc2ccc(C(=N)N)cc2N)c(N)c1`, for which half-maximal inhibition (IC50) required 1160 µM. The compound `N=C(N)c1ccc(NCCCCCCNc2ccc(C(=N)N)cc2)cc1` had an IC50 of 289 µM. The same measure, in the same setting: the value for `COc1cc(C(=N)N)ccc1OCCCCCOc1ccc(C(=N)N)cc1OC` was 3030 µM; that for `N=C(N)c1ccc(NCCCCCCNc2ccc(C(=N)N)cc2N)c(N)c1` was 991 µM. The same measure, in the same setting: the value for `N=C(N)c1ccc(OCCCCOc2ccc(C(=N)N)cc2Cl)c(Cl)c1` was 1330 µM; that for `N=C(N)c1ccc(NCCCNc2ccc(C(=N)N)cc2[N+](=O)[O-])c([N+](=O)[O-])c1` was 4830 µM; that for `N=C(N)c1ccc(OCCCCCOc2ccc(C(=N)N)cc2Cl)c(Cl)c1` was 703 µM. On the same count and under the same terms, in the case of `N=C(N)c1ccc(OCCCOc2ccc(C(=N)N)cc2N)c(N)c1` it was 3500 µM; in that of `N=C(N)c1ccc(NCCCNc2ccc(C(=N)N)cc2)cc1`, 687 µM; in that of `N=C(N)c1ccc(OCCCCCOc2ccc(C(=N)N)cc2[N+](=O)[O-])c([N+](=O)[O-])c1`, 2000 µM. As to `COc1cc(C(=N)N)ccc1OCCCOc1ccc(C(=N)N)cc1OC`, inhibition was half-maximal at 1790 µM (IC50).

`N=C(N)c1ccc(OCCCCCOc2ccc(C(=N)N)cc2Br)c(Br)c1` had an IC50 of 678 µM. As to `N=C(N)c1ccc(OCCCCOc2ccc(C(=N)N)cc2N)c(N)c1`, 7570 µM corresponded to half-maximal inhibition (IC50). The compound `c1cc(C2=NCCN2)ccc1OCCCCCOc1ccc(C2=NCCN2)cc1` gave an IC50 of 1720 µM.

As for `N=C(N)c1ccc(OCCOc2ccc(C(=N)N)cc2)cc1`, the IC50 was 15800 µM. Turning to `N=C(N)c1ccc(NCCCCCNc2ccc(C(=N)N)cc2)cc1`, the IC50 was 558 µM.

Compound `N=C(N)c1ccc(NCCNc2ccc(C(=N)N)cc2N)c(N)c1` had an IC50 of 26200 µM. On the same count and under the same terms, the value for `N=C(N)c1cccc(OCCCCOc2cccc(C(=N)N)c2)c1` was 5430 µM. On the same count and under the same terms, in the case of `N=C(N)c1cccc(OCCCCCCOc2cccc(C(=N)N)c2)c1` it was 1040 µM; in that of `N=C(N)c1ccc(OCCCCOc2ccc(C(=N)N)cc2)cc1`, 1590 µM; in that of `N=C(N)c1cccc(OCCCCCOc2cccc(C(=N)N)c2)c1`, 2130 µM.

`N=C(N)c1ccc(NCCCCCNc2ccc(C(=N)N)cc2[N+](=O)[O-])c([N+](=O)[O-])c1` showed an IC50 of 1130 µM. Turning to `N=C(N)c1cccc(OCCCOc2cccc(C(=N)N)c2)c1`, half-maximal inhibition (IC50) was put at 6100 µM. In turn, `COc1cc(C(=N)N)ccc1OCCCCOc1ccc(C(=N)N)cc1OC` gave an IC50 of 10000 µM. The same measure, in the same setting: in the case of `N=C(N)c1ccc(NCCCCNc2ccc(C(=N)N)cc2N)c(N)c1` it was 7870 µM; in that of `N=C(N)c1ccc(OCCOc2ccc(C(=N)N)cc2N)c(N)c1`, 22600 µM.

The compound `N=C(N)c1ccc(NCCCCNc2ccc(C(=N)N)cc2)cc1` showed an IC50 of 671 µM. In turn, `N=C(N)c1ccc(OCCOc2ccc(C(=N)N)cc2[N+](=O)[O-])c([N+](=O)[O-])c1` gave an IC50 of 50000 µM. This IC50 is about 75-fold higher than that of the compound before. Compound `N=C(N)c1ccc(OCCCCOc2ccc(C(=N)N)cc2[N+](=O)[O-])c([N+](=O)[O-])c1` showed an IC50 of 5600 µM. As to `c1cc(C2=NCCN2)ccc1OCCCOc1ccc(C2=NCCN2)cc1`, it took 1770 µM to reach half-maximal inhibition (IC50). In the case of `N=C(N)c1ccc(OCCCCCCOc2ccc(C(=N)N)cc2)cc1` [HEXAMIDINE], the IC50 is 396 µM. This IC50 is about 4.5-fold lower than that of the compound before. With `N=C(N)c1ccc(OCCCCCOc2ccc(C(=N)N)cc2)cc1` [PENTAMIDINE], inhibition was half-maximal at 820 µM (IC50). Compared with the last compound, the IC50 is about 2.1-fold higher. Same read-out and setting: in the case of `N=C(N)c1ccc(OCCCOc2ccc(C(=N)N)cc2)cc1` [PROPAMIDINE] it was 851 µM.

The next assay addresses Acetylcholinesterase (Homo sapiens, UniProt P22303).
Description: Inhibition acetylcholinesterase (AChE) enzyme.
`C[N+](C)(C)CCCBr` gave an IC50 of 87.9 µM. The compound `C[N+](C)(C)c1cccc(N)c1` had an IC50 of 192 µM. For the compound `C[N+](C)(C)c1cccc([N+](=O)[O-])c1`, the IC50 is 628 µM.

For a further assay, the target named is GABA-A receptor; anion channel.
Description: Inhibition on Benzodiazepine receptor
For orientation: pIC50 means −log10 of the IC50, conventionally taken in molar units. `CC(C)COc1cc2c(cn1)[nH]c1ccccc12` returned a pIC50 of 7.03. The compound `CC(C)(C)COc1cc2c3ccccc3nc-2c[nH]1` came in with a pIC50 of 7.02. On the same count and under the same terms, in the case of `CC(C)(C)C(=O)c1cc2c3ccccc3nc-2c[nH]1` it was 6.45; in that of `Cn1c2ccccc2c2c3[nH]c4ccccc4c3ncc21`, 5.93. On the same count and under the same terms, in the case of `c1ccc2c(c1)[nH]c1c2ncc2[nH]c3ccccc3c21` it was 8.4; in that of `Clc1cccc2[nH]c3c4c5ccccc5nc-4c[nH]c3c12`, 6.15. Still for that read-out and setting: in the case of `Cc1ccc2[nH]c3c4c5ccccc5nc-4c[nH]c3c2c1` it was 6.65; in that of `CC(C)(C)OC(=O)c1cc2c3ccccc3nc-2c[nH]1`, 8; in that of `COc1ccc(-n2nc3c4ccccc4[nH]cc-3c2=O)cc1`, 10. Compound `CCc1nc(C(=O)OC)cc2c1[nH]c1ccccc12` had a pIC50 of 5.12.

In turn, `CC(C)Oc1cc2c(cn1)[nH]c1ccccc12` returned a pIC50 of 6.29. On the same count and under the same terms, in the case of `CCCCOc1cc2c(cn1)[nH]c1ccccc12` it was 7.01; in that of `COc1cc2c(cn1)[nH]c1ccccc12`, 6.91. For the compound `Clc1cc2c(cn1)[nH]c1ccccc12`, the pIC50 amounted to 7.35.

Take `CCOc1cc2c(cn1)[nH]c1ccccc12`: the pIC50 stood at 7.62. The same measure, in the same setting: in the case of `CCCOc1cc2c(cn1)[nH]c1ccccc12` it was 7.96; in that of `CCCC(=O)c1cc2c(cn1)[nH]c1ccccc12`, 7.64; in that of `CCCCc1cc2c(cn1)[nH]c1ccccc12`, 6.64. For `O=[N+]([O-])c1cc2c3ccccc3nc-2c[nH]1`, the pIC50 stood at 6.9.

As for `c1ccc2c(c1)[nH]c1c2ccc2[nH]c3ccccc3c21`, the negative-log IC50 (pIC50) is 5.71. Regarding `CCOC(=O)c1cc2c(cn1)sc1ccccc12`, the pIC50 is on record as 5.77. Same read-out and setting: in the case of `Cc1ccc2c(c1)[nH]c1c3c4ccccc4nc-3c[nH]c12` it was 8.1; in that of `Cc1cccc2c1[nH]c1c3c4ccccc4nc-3c[nH]c12`, 7.17. The same measure, in the same setting: the value for `CCOC(=O)c1cc2c(cn1)Cc1ccccc1-2` was 6.17; that for `CCOC(=O)c1cc2c(cn1)nc(O)c1ccccc12` was 5.62; that for `COc1cccc2[nH]c3c4c5ccccc5nc-4c[nH]c3c12` was 6.6. Still for that read-out and setting: in the case of `CC(C)(C)COC(=O)c1cc2c3ccccc3nc-2c[nH]1` it was 6.12; in that of `Cc1cccc2[nH]c3c4c5ccccc5nc-4c[nH]c3c12`, 5.16; in that of `Cn1c2ccccc2c2[nH]cc3nc4ccccc4c-3c21`, 6.8. For the compound `CCOC(=O)c1cc2c(cn1)oc1ccccc12`, the pIC50 was 5.07. The same measure, in the same setting: in the case of `CCC(C)Oc1cc2c3ccccc3nc-2c[nH]1` (stereo not drawn) it was 6.33; in that of `c1ccc(COc2cc3c4ccccc4nc-3c[nH]2)cc1`, 6; in that of `CC(C)CCOc1cc2c3ccccc3nc-2c[nH]1`, 6.37.

In the case of `COC(=O)c1cc2c(cn1)[nH]c1ccccc12` [BETA-CCM], the pIC50 is given as 8.3. Turning to `O=C1C2C=Nc3ccccc3C2=NN1c1ccccc1` (stereo not drawn) [CGS-8216], the pIC50 is on record as 9.4. The same measure, in the same setting: in the case of `O=C1C2C=Nc3ccccc3C2=NN1c1ccc(Cl)cc1` (stereo not drawn) [CGS-9896] it was 9.22; in that of `Cc1nccc2c1[nH]c1ccccc12` [HARMAN], 4.91; in that of `c1ccc2c(c1)[nH]c1cnccc12` [NORHARMANE], 5.79.
